Assay: Transactivation of VDR in human Macrophage-like cell assessed as cell differentiation measured after 4 days by NBT dye-based assay

Question: With `C[C@H](CCC(=O)O)[C@H]1CC[C@H]2[C@@H]3CC[C@@H]4C[C@H](OS(C)(=O)=O)CC[C@]4(C)[C@H]3CC[C@]12C` as the compound, how does the EC50 read?
Answer: 1200 nM

From BindingDB's records for doi:10.1016/j.bmc.2019.07.003 (Tokyo Medical and Dental University, 2019)
